We go through 14 molecules from ChEMBL document CHEMBL5625175, “Quinazoline-based VEGFR-2 inhibitors as potential anti-angiogenic agents: A contemporary perspective of SAR and molecular docking studies” (Eur J Med Chem, 2023).

pEC50, pIC50: −log10 of the molar value. Converted amounts (≈) assume the structure as drawn.

The pEC50 is the EC50 on a negative log10 scale, so that one unit is a factor of ten. A word on the bioavailability: it is the share of a dose that reaches the circulation, judged against a reference dose that is usually intravenous. As a reminder, the half-life is the time needed for the level to fall by half in the phase considered. What is called pIC50 is the negative decadic logarithm of the IC50, by convention in mol/L. In general, IC50 refers to the concentration that inhibits the measured activity by half. By GI50 is commonly meant the concentration giving 50% growth inhibition.

One data set is described as follows: in vitro. Conditions: human, HUVEC cells.
Data set [1] deals with HUVEC. Kind of data set: cells. The conditions noted are these: Homo sapiens.
In a further data set the test system is Calu-6. Kind of data set: Antitumor activity against human Calu-6 cells xenografted in athymic mouse assessed as inhibition of tumor growth at 100 mg/kg, po administered once daily for 21 days relative to control. Details: scale not given: the % may be the effect or the level left. Conditions: time 21 day. Format: functional. On the technique in general: A xenograft is tissue or cells of one species grown in another, often human tumour cells in immunodeficient mice.

The nature of data set [2]: Oral bioavailability in rat at 2.5 mg/kg. The data set is classed as ADME, organism-based. Conditions: in vivo.
Data set [3] deals with HUVEC. Kind of data set: cells. Conditions: Homo sapiens. This is another data set of the same source.
Data set [4] can be described thus: Half life in rat at 5 mg/kg, iv. The data set is classed as ADME, organism-based. Conditions: in vivo.
For data set [5], the system named is HepG2. Kind of data set: Antiproliferative activity against human HepG2 cells assessed as reduction in cell growth incubated for 48 hrs by MTT based colorimetric analysis. The data set is classed as functional. Conditions: HepG2, 48 h.
Data set [6] has as its system MCF7. Kind of data set: cells. Conditions: Homo sapiens, MCF7, 48 h.
For the next data set, the system named is NCI-H460. Kind of data set: cells. The conditions noted are these: Homo sapiens, NCI-H460, 48 h.
In the next data set the test system is A549. Kind of data set: cells. The conditions noted are these: Homo sapiens, A549, 48 h.
The subject of the next data set is Macrophage. Kind of data set: cells. Conditions: Homo sapiens, 48 h.
Data set [7] is described as follows: Intrinsic clearance in human hepatocytes at 0.5 uM measured after 10 mins by LC-MS/MS analysis. The data set is classed as ADME, cell-based, Hepatocyte.
Data set [8] deals with HCT-116. Kind of data set: cells. Conditions: Homo sapiens, HCT-116, 48 h.
Data set [9] relates to MCF7. Kind of data set: cells. Conditions: Homo sapiens, MCF7, 48 h. The source holds these as a separate data set.
The next data set concerns B16. Kind of data set: Antiproliferative activity against mouse B16 cells assessed as reduction in cell viability incubated for 48 hrs by MTT assay. The data set is classed as functional, cell-based. The conditions noted are these: B16, 48 h. On the technique in general: Tetrazolium dyes change colour on reduction, which living cells bring about.
Data set [10] concerns the target T1, Vascular endothelial growth factor receptor 2 (Homo sapiens, UniProt P35968). Kind of data set: Inhibition of VEGFR-2 (unknown origin) kinase activity using poly(Glu-Tyr) at 4:1 ratio as substrate in presence of ATP incubated for 60 mins by ELISA. For orientation: ELISA stands for enzyme-linked immunosorbent assay.
Data set [11] addresses Serine/threonine-protein kinase B-raf (Homo sapiens, UniProt P15056). Kind of data set: Inhibition of human recombinant B-Raf using […] as substrate incubated for 40 mins in presence of [gamma33P]ATP by scintillation counter based kinase assay.
The target in data set [12] is RAF proto-oncogene serine/threonine-protein kinase (Homo sapiens, UniProt P04049). Kind of data set: Inhibition of human recombinant C-Raf using Glu-Tyr-Met-Pro-Met-Glu as substrate incubated for 60 mins by radiometric kinase assay.
Chain of RAF proto-oncogene serine/threonine-protein kinase (P04049 whole entry): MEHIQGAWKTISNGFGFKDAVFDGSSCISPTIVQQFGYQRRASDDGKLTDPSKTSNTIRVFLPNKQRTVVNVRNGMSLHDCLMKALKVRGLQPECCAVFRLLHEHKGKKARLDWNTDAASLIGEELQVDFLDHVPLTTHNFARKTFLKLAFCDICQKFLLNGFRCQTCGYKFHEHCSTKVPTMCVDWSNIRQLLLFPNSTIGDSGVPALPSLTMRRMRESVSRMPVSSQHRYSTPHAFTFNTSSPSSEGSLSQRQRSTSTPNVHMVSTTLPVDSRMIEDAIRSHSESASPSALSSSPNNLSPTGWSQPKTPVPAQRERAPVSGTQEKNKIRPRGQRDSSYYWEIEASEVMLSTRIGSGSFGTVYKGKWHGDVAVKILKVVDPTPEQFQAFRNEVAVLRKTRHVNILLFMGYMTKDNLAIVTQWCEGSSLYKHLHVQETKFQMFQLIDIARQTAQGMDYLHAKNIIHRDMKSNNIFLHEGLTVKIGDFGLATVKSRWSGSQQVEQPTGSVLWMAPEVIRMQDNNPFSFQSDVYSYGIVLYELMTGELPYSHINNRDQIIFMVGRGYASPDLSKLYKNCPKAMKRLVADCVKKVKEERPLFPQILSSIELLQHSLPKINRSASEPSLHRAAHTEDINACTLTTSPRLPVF
The target of data set [13] is Serine/threonine-protein kinase B-raf (Homo sapiens, UniProt P15056, V600E). Kind of data set: Inhibition of B-RAF V600E mutant (unknown origin) using […] as substrate incubated for 40 mins in presence of [gamma33P]ATP by scintillation counter based kinase assay.
Chain of Serine/threonine-protein kinase B-raf (Homo sapiens, UniProt P15056, V600E) (P15056 2-766 V600E limits assumed): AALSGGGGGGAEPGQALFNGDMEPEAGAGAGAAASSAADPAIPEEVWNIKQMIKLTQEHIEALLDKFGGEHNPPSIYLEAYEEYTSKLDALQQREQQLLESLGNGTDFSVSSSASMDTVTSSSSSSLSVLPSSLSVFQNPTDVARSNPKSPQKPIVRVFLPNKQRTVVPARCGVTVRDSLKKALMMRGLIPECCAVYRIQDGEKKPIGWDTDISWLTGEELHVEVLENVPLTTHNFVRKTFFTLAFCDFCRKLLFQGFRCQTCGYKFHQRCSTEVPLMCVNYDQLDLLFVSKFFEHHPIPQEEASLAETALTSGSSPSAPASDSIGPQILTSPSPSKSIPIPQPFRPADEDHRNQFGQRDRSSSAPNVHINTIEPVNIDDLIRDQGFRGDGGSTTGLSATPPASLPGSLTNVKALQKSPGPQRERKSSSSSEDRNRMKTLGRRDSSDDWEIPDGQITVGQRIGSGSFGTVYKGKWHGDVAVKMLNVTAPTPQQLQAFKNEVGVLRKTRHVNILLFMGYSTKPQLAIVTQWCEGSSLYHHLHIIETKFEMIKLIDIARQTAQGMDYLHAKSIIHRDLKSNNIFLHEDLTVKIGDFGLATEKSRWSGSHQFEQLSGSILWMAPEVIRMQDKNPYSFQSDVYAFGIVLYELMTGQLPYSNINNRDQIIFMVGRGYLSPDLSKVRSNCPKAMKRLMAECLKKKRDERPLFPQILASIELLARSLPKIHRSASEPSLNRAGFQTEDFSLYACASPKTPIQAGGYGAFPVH
Data set [14] concerns the target Epidermal growth factor receptor (Homo sapiens, UniProt P00533). Kind of data set: Inhibition of human recombinant EGFR using poly(Glu-Tyr) as substrate at 4:1 ratio in presence of ATP incubated for 60 mins by ELISA analysis.
Data set [15] has as its system HepG2. Kind of data set: Antiproliferative activity against human HepG2 cells assessed as reduction in cell growth measured after 24 hrs by MTT assay. Conditions: HepG2, 24 h. The data set is classed as functional, cell-based.
For a further data set, the system named is PC-3. Kind of data set: Antiproliferative activity against human PC-3 cells assessed as reduction in cell growth measured after 24 hrs by MTT assay. Format: functional, cell-based. The conditions noted are these: PC-3, 24 h.
For data set [16], the system named is MCF7. Kind of data set: Antiproliferative activity against human MCF7 cells assessed as reduction in cell growth measured after 24 hrs by MTT assay. Format: functional, cell-based. The conditions noted are these: MCF7, 24 h.
The subject of data set [17] is HCT-116. Kind of data set: Antiproliferative activity against human HCT-116 cells assessed as cell growth inhibition measured after 48 hrs by MTT assay. Format: functional, cell-based. The conditions noted are these: HCT-116, 48 h.
For data set [18], the system named is MCF7. Kind of data set: Antiproliferative activity against human MCF7 cells assessed as cell growth inhibition measured after 48 hrs by MTT assay. Format: functional, cell-based. Conditions: MCF7, 48 h.
The target in data set [19] is T1, Vascular endothelial growth factor receptor 2. Kind of data set: Inhibition of VEGFR-2 (unknown origin) by Kinase-Glo Max assay.
The test system of data set [20] is HepG2. Kind of data set: Growth inhibition of human HepG2 cells incubated for 24 hrs by MTT assay. Format: functional.
The subject of data set [21] is MCF7. Kind of data set: Growth inhibition of human MCF7 cells incubated for 24 hrs by MTT assay. The data set is classed as functional.
The target in data set [22] is T1, Vascular endothelial growth factor receptor 2.
The test system of data set [23] is HCT-116. Kind of data set: Growth inhibition of human HCT-116 cells incubated for 24 hrs by MTT assay. The data set is classed as functional.
For data set [24], the system named is HepG2. Kind of data set: Cytotoxicity against human HepG2 cells assessed as cell growth inhibition. The data set is classed as functional, cell-based.
The subject of data set [25] is HCT-116. Kind of data set: Cytotoxicity against human HCT-116 cells assessed as cell growth inhibition. Format: functional, cell-based.
A further data set relates to WISH. Kind of data set: Cytotoxicity against human WISH cells assessed as cell growth inhibition. The data set is classed as functional, cell-based.
In data set [26] the target is Vascular endothelial growth factor receptor 1 (Homo sapiens, UniProt P17948). Kind of data set: Inhibition of VEGFR-1 (unknown origin).
Data set [27] deals with T1, Vascular endothelial growth factor receptor 2. This is another data set of the same source.
Data set [28] has as its system MCF7. Kind of data set: Antiproliferative activity against human MCF7 cells assessed as reduction in cell growth incubated for 24 hrs by MTT assay. The data set is classed as functional, cell-based. Conditions: MCF7, 24 h.
The subject of data set [29] is HCT-116. Kind of data set: Antiproliferative activity against human HCT-116 cells assessed as reduction in cell growth incubated for 24 hrs by MTT assay. Format: functional, cell-based. Conditions: HCT-116, 24 h.
Data set [30] deals with HUVEC. Kind of data set: Antiproliferative activity against VEGF-stimulated HUVEC cells assessed as cell growth inhibition measured after 24 hrs by BrdUrd incorporation based spectrophotometric analysis. Format: functional. Conditions: Homo sapiens.
Data set [31] deals with T1, Vascular endothelial growth factor receptor 2. Kind of data set: Inhibition of human VEGFR-2 using biotinylated synthetic peptide biotin-aminohexyl-EEEEYFELVAKKKK-NH2 as substrate pre-incubated for 30 mins and measured after 30 mins by FRET assay.

T1 sequence (P35968 whole entry): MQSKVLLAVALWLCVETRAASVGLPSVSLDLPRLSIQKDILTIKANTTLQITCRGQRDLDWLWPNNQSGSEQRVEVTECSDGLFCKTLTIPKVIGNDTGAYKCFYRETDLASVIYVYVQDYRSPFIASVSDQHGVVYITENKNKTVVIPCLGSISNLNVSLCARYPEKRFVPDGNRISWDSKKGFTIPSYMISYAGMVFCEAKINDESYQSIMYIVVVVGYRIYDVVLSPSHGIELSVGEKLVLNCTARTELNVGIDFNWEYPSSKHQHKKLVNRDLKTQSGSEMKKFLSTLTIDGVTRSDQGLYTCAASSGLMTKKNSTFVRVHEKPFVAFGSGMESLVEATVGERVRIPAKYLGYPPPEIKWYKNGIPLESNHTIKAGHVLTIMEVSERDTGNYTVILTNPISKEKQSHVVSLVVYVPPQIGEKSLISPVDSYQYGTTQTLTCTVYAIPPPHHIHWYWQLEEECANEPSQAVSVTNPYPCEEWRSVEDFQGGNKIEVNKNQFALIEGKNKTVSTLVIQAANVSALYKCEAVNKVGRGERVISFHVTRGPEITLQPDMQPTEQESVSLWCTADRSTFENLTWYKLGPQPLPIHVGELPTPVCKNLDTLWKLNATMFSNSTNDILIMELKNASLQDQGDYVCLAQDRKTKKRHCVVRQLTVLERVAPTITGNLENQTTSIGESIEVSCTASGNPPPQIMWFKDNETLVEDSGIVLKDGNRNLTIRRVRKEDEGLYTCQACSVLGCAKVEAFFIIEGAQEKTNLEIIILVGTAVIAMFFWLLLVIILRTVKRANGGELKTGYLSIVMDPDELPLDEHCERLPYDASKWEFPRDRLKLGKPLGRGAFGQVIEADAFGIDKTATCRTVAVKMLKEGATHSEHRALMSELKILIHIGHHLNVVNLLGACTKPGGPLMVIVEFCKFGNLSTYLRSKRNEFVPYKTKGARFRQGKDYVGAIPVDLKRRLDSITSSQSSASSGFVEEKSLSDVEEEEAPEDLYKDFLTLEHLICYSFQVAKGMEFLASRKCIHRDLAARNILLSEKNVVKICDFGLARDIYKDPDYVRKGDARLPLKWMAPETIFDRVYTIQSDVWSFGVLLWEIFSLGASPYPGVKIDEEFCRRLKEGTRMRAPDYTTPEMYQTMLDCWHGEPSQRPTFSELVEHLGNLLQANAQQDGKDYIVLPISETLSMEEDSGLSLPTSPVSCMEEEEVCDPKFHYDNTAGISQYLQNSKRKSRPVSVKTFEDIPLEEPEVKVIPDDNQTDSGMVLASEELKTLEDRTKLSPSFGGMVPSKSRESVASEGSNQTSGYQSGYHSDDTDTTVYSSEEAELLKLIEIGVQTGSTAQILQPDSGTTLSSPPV
Chain of Epidermal growth factor receptor (P00533 whole entry): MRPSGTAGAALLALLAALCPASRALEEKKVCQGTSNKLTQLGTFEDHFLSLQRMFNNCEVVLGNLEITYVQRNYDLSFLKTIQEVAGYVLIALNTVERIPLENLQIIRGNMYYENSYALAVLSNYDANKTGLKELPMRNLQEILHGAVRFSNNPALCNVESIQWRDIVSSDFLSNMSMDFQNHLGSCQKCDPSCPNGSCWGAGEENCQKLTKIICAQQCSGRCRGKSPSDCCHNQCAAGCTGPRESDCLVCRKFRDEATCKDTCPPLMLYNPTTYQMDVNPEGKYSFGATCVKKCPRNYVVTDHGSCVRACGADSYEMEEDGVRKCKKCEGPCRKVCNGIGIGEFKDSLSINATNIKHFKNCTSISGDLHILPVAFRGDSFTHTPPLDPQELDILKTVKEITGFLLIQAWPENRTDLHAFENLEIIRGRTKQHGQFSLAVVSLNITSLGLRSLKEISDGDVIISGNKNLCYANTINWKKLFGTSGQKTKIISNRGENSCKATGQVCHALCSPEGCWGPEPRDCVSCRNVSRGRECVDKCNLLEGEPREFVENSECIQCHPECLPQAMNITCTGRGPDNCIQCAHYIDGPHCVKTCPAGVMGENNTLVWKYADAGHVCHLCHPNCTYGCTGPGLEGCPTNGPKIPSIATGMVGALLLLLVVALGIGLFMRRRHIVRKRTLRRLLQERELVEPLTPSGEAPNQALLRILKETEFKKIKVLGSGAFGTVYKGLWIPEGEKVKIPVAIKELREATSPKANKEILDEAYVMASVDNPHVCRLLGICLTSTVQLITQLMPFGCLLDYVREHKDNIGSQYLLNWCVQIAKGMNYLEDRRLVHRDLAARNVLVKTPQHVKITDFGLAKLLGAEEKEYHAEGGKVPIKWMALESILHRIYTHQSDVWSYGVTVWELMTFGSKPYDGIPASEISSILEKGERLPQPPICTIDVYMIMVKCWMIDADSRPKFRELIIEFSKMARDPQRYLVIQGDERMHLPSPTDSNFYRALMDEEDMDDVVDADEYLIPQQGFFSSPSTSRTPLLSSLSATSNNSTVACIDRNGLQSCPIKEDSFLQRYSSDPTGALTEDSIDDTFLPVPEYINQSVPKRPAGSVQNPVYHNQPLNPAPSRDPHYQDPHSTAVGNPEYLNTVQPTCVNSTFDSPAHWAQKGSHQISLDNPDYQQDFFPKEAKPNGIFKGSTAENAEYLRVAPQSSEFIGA
Chain of Serine/threonine-protein kinase B-raf (Homo sapiens, UniProt P15056) (P15056 whole entry): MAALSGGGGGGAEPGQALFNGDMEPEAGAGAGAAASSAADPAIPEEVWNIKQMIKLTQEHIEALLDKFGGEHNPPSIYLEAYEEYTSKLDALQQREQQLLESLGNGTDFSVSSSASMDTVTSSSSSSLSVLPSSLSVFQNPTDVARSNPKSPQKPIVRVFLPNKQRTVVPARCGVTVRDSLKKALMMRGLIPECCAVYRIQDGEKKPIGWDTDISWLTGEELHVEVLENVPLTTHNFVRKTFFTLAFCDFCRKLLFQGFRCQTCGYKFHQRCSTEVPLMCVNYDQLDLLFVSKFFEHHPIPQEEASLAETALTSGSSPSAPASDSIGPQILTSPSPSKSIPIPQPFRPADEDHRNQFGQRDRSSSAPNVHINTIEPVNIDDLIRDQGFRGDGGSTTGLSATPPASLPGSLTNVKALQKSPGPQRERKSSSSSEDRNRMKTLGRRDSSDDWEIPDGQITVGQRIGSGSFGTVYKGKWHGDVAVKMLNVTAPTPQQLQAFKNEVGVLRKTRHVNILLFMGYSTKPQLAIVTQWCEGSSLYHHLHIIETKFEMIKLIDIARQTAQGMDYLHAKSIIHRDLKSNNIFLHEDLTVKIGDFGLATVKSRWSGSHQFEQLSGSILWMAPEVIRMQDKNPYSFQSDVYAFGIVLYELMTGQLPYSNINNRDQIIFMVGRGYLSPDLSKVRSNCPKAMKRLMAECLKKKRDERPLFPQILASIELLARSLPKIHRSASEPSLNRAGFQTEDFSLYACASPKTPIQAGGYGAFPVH

Turning to `COc1cc2/c(=N/c3ccc(Br)cc3F)nc[nH]c2cc1OCC1CCN(C)CC1` [VANDETANIB], the negative logarithm of the EC50 (pEC50) in “in vitro” was below 5.52; in the data set with HUVEC [1], 8.00; in the data set with HUVEC [3] it was 7.22. In the data set with Calu-6, the Activity was determined as 79%. The bioavailability in data set [2] is above 50%. The half-life in [4] was 498 min.
As for `CCNC(=S)NS(=O)(=O)c1ccc(NC(=O)CSc2nc3ccccc3c(=O)n2CC)cc1`, the pIC50 in the data set on HepG2 [5] was 5.36.
For the molecule `Cc1ncc([N+](=O)[O-])n1CCOc1ncnc2ccc([N+](=O)[O-])cc12`, the pIC50 is 5.79 with MCF7 [6], 5.91 in the data set with NCI-H460, 5.82 with A549 and 3.54 in the data set with Macrophage.
Turning to `COc1cc2ncnc(Nc3cc(O)c(C)cc3F)c2cc1OC`, the CLH in data set [7] is 91.9 µL/min.
For the molecule `COc1cc2ncnc(Oc3cccc(NC(=S)Nc4ccc(Br)c(C(F)(F)F)c4)c3)c2cc1OC`, the results for the pIC50 with HCT-116 [8], with MCF7 [9] and in the data set on B16 were 5.08, 4.81 and 5.25, respectively.
In the case of `NC(=O)CCn1cc(-c2ccc3ncnc(Nc4cc(O)c(F)cc4F)c3c2)nn1`, the negative-log IC50 (pIC50) in data set [10] is 8.15; in [11], 7.24; in data set [12], 6.00; in [13], 7.29; in data set [14], 7.14.
With `COc1cccc2c1C(=O)c1c(O)c3c(c(O)c1C2=O)C[C@@](O)(C(=O)CO)C[C@@H]3O[C@H]1C[C@H](N)[C@H](O)[C@H](C)O1` [DOXORUBICIN], the IC50 in the data set with HepG2 [15] came out at 7.94 µg/mL (≈ 14.6 µM); in the data set with PC-3, 8.87 µg/mL (≈ 16.3 µM); in the data set on MCF7 [16] it was 6.75 µg/mL (≈ 12.4 µM).
Regarding `C/C(=N\NC(=O)c1ccccc1O)c1ccc(NC(=O)CSc2nc3ccccc3c(=O)n2-c2ccccc2)cc1`, the pIC50 in the data set with HCT-116 [17] is 5.30; in the data set with MCF7 [18] it was 5.17.
In turn, `CNC(=O)c1c(C)oc2cc(Oc3ncnc4cc(OC)c(OC)cc34)ccc12` [FRUQUINTINIB] had a pIC50 in data set [19] of 7.46.
For `O=C(Cn1c(=O)c2ccccc2n(Cc2ccccc2)c1=O)Nc1ccc(C(=O)N/N=C/c2ccc(Cl)cc2)cc1`, the GI50 in the data set on HepG2 [20] worked out at 9.16 µM; in the data set on MCF7 [21], 5.27 µM; with HCT-116 [23] it was 5.69 µM. The molecule further gave a pIC50 in data set [22] of 6.92.
With `Cc1ccc2nc(-c3cccnc3)nc(NNC(=S)NC3CCCCC3)c2c1`, the figures for the negative logarithm of the IC50 (pIC50) in the data set on HepG2 [24], in the data set on HCT-116 [25] and in the data set on WISH were 4.98, 5.47 and 4.30, respectively.
Take `COc1cc2ncnc(Nc3ccsc3C(=O)Nc3ccc(F)c(Cl)c3)c2cc1OC`: the pIC50 was 6.96 in data set [26] and 7.06 in data set [27].
For `CCn1c(SCC(=O)Nc2ccc(/C(C)=N/O)cc2)nc2ccccc2c1=O`, the negative logarithm of the IC50 (pIC50) in the data set on MCF7 [28] was 5.34; in the data set with HCT-116 [29], 5.32.
For the molecule `COc1cc2nc(-c3ccccc3)n(-c3nnc(-c4ccc(Cl)cc4)s3)c(=O)c2cc1OC`, the pIC50 with HUVEC [30] was 8.26; in [31] it was 8.42.
